Results taken from patent EP2549976B1, “SKIN-FRIENDLY ACTIVE INGREDIENT COMBINATION TO COMBAT ACNE” (Beiersdorf AG, priority 2010, dated 2011).

Key:
P.acnes = test: Suspension test: decline of P. acnes in the formulations after 1 h, 6 h and 24 h (colony count); format: cell-based, Propionibacterium acnes; conditions: for antimikrobielle Wirksamkeit gegen P.acnes: result in words, suspension test, formulations as composed
Protocol: Die antimikrobielle Wirksamkeit der erfindungsgemäßen Kombinationen gegen P. acnes wurde zum Vergleich mit verschiedenen Formulierungen untersucht. Dazu wurde in einem Suspensionstest der Rückgang der P.acnes nach 1 h, 6h und 24h beobachtet. Dazu wurden wenige Einzelkolonien einer P.acnes - Kultur in 10mL anaerobem Medium im Impedanzgerät mit dem Programm PR37NT herangezogen. Nach der Wachstumsphase von ca. 18 Stunden wird zur Kontrolle der Keimzahl die OD gemessen, die etwa zwischen 0,3 - 0,5 liegen sollte. Für den Versuch wurden 100µL der gewachsene Kolonie und 100µL autoklaviertes Wasser zu 800mg der zu prüfenden Formulierung gegeben. Die Tests wurden manuell durchgeführt. Zwischen den Abnahmen werden die Proben unter anaeroben Bedingungen (Topf) gelagert. Die Proben wurden jeweils zum Zeitpunkt 1h, 6h und 24h genommen und auf den entsprechenden Agarplatten ausplattiert. Die Platten werden unter anaeroben Bedingungen (Topf) bei 37°C bebrütet. Nach 5 Tagen wurde die Keimzahl bestimmt. Die Abbildungen 1 und 2 zeigen die ermittelten Ergebnisse. Darin umfassen die Formulierung wie folgt • A: 0,5 Gew.% Licochalcone A • B: 0,5 Gew.% Licochalcone A und 0,3 Gew.% 1,2 Decandiol • C: 0,3 Gew.% 1,2 Decandiol • D: 0,5 Gew.% Licochalcone A, 0,3 Gew.% 1,2 Decandiol und 2 Gew.% Carnitin • E: 0,5 Gew.% Licochalcone A, 0,2 Gew.% 1,2 Decandiol und 2 Gew.% Carnitin • F: 0,5 Gew.% Licochalcone A, 0,1 Gew.% 1,2 Decandiol und 2 Gew.% Carnitin • G: 0,3 Gew.%-1,2 Decandiol und 2 Gew.% Carnitin • H: 0,2 Gew.% 1,2 Decandiol und 2 Gew.% Carnitin • I: 0,1 Gew.% 1,2 Decandiol und 2 Gew.% Carnitin

P. acnes [1] = conditions: 0,2 % 1,2-Decandiol alone or combined with 1 % Milchsäure, from EP 1598064 A1; cited from earlier work
P. acnes [2] = conditions: gegenüber P. acnes; cited from earlier work

| Compound | Zellzahl reduziert um Faktor (P.acnes; 0,3% Decandiol allein) | antimikrobielle Wirksamkeit gegen P.acnes (P.acnes) | antibakterielle Wirkung im Suspensionstest (P. acnes [1]) | MHK-Werte (P. acnes [2]) | Reduktionsfaktor (P.acnes; 0,5% Licochalcone A allein, nach 24h) |
| --- | --- | --- | --- | --- | --- |
| CCCCCCCCC(O)CO (stereo not shown) [1,2-Decandiol] | 4158 | nur eine schwache antimikrobielle Wirksamkeit | so gut wie keine antibakterielle Wirkung |  |  |
| CC[C@H]1OC(=O)[C@H](C)[C@@H](O[C@H]2C[C@@](C)(OC)[C@@H](O)[C@H](C)O2)[C@H](C)[C@@H](O[C@@H]2O[C@H](C)C[C@H](N(C)C)[C@H]2O)[C@](C)(O)C[C@@H](C)C(=O)[C@H](C)[C@@H](O)[C@]1(C)O [Erythromycin] |  |  |  | < 1 pmm |  |
| C=CC(C)(C)c1cc(/C=C/C(=O)c2ccc(O)cc2)c(OC)cc1O [Licochalcone A] |  | keine antimikrobielle Wirksamkeit |  |  | 41 |
| CN(C)[C@@H]1C(O)=C(C(N)=O)C(=O)[C@@]2(O)C(O)=C3C(=O)c4c(O)cccc4[C@@](C)(O)[C@H]3C[C@@H]12 [Tetracyclin] |  |  |  | < 1 pmm |  |
